Series [1] deals with Leishmania infantum. In words: Leishmanicidal activity against Leishmania infantum MCAN/ES/89/IPZ229/1/89 promastigotes after 24 hrs by propidium iodide staining based flow cytometry. The format is functional. The following applies: MCAN/ES/89/IPZ229/1/89, 24 h. (Flow cytometry measures light scatter and fluorescence of single cells or particles in a stream.)
A short description of series [2]: Selectivity index, ratio of LC50 for cytotoxicity against human THP1 cells to LC50 for leishmanicidal activity against Leishmania infantum MCAN/ES/89/IPZ229/1/89 promastigotes. To be noted: THP-1 cells, read-out: RatioLC50. The format is toxicity, cell-based.
For series [3], the system named is Leishmania infantum. In words: Leishmanicidal activity against Leishmania infantum amastigotes after 24 hrs by propidium iodide staining based flow cytometry. Format: functional.
The nature of series [4]: Cytotoxicity against human THP1 cells after 24 hrs by propidium iodide staining based flow cytometry. Format: cell-based. The following applies: THP-1 cells, read-out: LC50.
Series [5] can be described thus: Selectivity index, ratio of LC50 for cytotoxicity against human THP1 cells to LC50 for leishmanicidal activity against Leishmania infantum amastigotes. The format is toxicity, cell-based. The following applies: THP-1 cells, read-out: RatioLC50.
Series [6] relates to Leishmania infantum. In words: Leishmanicidal activity against Leishmania infantum MCAN/ES/89/IPZ229/1/89 promastigotes at 25 uM after 24 hrs by propidium iodide staining based flow cytometry. Format: functional, organism-based.
The next series deals with Proteinase K (Engyodontium album, UniProt P06873). In words: Stability assessed as Tritirachium album proteinase K-mediated compound degradation by measuring half life at 50 uM by HPLC method. Format: ADME. To be noted: parengyodontium album.
For series [7], the target named is T1, Trypanothione reductase (Leishmania infantum, UniProt A4HSF7). In words: Inhibition of dimerization of HIS/FLAG tagged Leishmania infantum trypanothione reductase incubated for 16 hrs in presence of dimerization buffer by ELISA. In general terms: ELISA stands for enzyme-linked immunosorbent assay.
The target of series [8] is T1, Trypanothione reductase. In words: Inhibition of oxidoreductase activity of recombinant Leishmania infantum trypanothione reductase pre-incubated for 10 mins before T[S]2 and NADPH addition.
The test system of series [9] is Leishmania infantum. Nature of the series: Leishmanicidal activity against Leishmania infantum amastigotes at 25 uM after 24 hrs by propidium iodide staining based flow cytometry. Format: functional, organism-based.

This is an account of results in ChEMBL document CHEMBL4130478, “Improved proteolytic stability and potent activity against Leishmania infantum trypanothione reductase of α/β-peptide foldamers conjugated to cell-penetrating peptides” (Eur J Med Chem, 2017).

The source made the active and inactive calls. Numbered stars: 1 amine (or outer) side, 2 acyl side, 3 side chain; on linkers, the order of the positions; unused ones are H or OH. Bridge positions count the residues as written; N and C are the ends. Square brackets hold non-standard residues; d marks the D form. Peptide text beside a SMILES is read from it. I, II: the chains in the order shown. X2 = NCCCC[C@H](N[*:2])C(=O)C1CCCCN([C@@H](CCC(=O)O)C(=O)[*:1])C(=O)C1; X1 = O=C(CC[C@@H]1CCCN1[*:1])[*:2]; β3hI = CC[C@H](C)[C@H](N)CC(=O)O; β3hQ = NC(=O)CC[C@H](N)CC(=O)O; β3hK = NCCCC[C@H](N)CC(=O)O; β3hS = N[C@@H](CO)CC(=O)O; Nle = CCCC[C@H](N)C(=O)O; β3hA = C[C@H](N)CC(=O)O

T1 sequence (A4HSF7 whole entry): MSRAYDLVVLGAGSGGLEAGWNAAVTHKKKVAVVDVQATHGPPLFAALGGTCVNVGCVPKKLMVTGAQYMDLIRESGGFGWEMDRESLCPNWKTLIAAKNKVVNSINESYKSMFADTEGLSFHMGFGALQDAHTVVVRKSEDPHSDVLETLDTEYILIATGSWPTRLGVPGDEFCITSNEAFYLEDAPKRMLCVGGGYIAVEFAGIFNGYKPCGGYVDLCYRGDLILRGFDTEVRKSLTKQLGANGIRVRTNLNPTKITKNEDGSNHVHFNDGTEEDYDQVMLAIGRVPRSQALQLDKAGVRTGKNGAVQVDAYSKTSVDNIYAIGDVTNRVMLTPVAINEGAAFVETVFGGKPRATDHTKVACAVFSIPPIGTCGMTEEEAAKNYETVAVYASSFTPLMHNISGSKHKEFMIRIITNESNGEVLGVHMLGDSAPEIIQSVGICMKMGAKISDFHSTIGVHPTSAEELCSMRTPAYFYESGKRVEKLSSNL
Chain of Proteinase K (P06873 whole entry): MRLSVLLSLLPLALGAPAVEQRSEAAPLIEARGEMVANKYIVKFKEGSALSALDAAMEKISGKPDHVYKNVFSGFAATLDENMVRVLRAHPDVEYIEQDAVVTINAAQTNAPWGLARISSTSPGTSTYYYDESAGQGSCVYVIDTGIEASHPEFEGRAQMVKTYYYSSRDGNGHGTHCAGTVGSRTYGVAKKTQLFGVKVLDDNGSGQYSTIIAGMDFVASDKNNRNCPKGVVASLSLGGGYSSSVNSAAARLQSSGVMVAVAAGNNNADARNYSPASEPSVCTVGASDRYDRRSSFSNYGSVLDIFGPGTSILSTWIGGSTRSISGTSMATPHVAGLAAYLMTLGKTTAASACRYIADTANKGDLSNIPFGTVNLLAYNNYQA

As a reminder, the LC50 is the concentration that kills 50% of the test population. Read a low LC50 as greater toxicity. Turning to `CCCCCCCCCCCCCCCCCCOC[C@H](COP(=O)([O-])OCC[N+](C)(C)C)OC` [(R)-EDELFOSINE], the median lethal concentration (LC50) was determined as 9 µM in the series with Leishmania infantum [1] and 0.6 µM in the series on Leishmania infantum [3]. For the same compound, the selectivity ratio in series [2] is < 1; in series [5] it was 1.7. In addition, in series [4], the CC50 at 24 h was 1 µM.
On the same counts, the results for `CC[C@H](C)[C@H](NC(=O)CNC(=O)[C@@H](NC(=O)[C@H](CO)NC(=O)[C@H](CCC(N)=O)NC(=O)[C@@H](NC(=O)[C@@H](NC(=O)[C@H](CCCCN)NC(=O)[C@@H]1CCCN1C(=O)[C@H](CCCNC(=N)N)NC(=O)[C@H](CCCNC(=N)N)NC(=O)[C@H](CCCNC(=N)N)NC(=O)[C@H](CCCNC(=N)N)NC(=O)[C@H](CCCNC(=N)N)NC(=O)[C@H](CCCNC(=N)N)NC(=O)[C@H](CCCNC(=N)N)NC(=O)[C@H](CCCNC(=N)N)NC(=O)[C@@H](N)CCCNC(=N)N)[C@@H](C)CC)[C@@H](C)CC)C(C)C)C(=O)N[C@@H](CO)C(=O)N[C@@H](CC(C)C)C(=O)N[C@@H](CCCCN)C(=O)N[C@@H](CC(C)C)C(=O)O` (H-RRRRRRRRRPKIIQSVGISLKL-OH) are 4.6 µM, 3.5 µM, < 1, < 1 and 1.7 µM.
`CCCCCCCCCCCCCCCCOP(=O)([O-])OCC[N+](C)(C)C` [MILTEFOSINE]: the selectivity ratio was < 1 in series [2] and 9.5 in series [5]. The median lethal concentration (LC50) in the series with Leishmania infantum [3] was 2 µM.
On to `CCCC[C@H](NC(=O)[C@H](CCCCN)NC(=O)[C@H](CCCC)NC(=O)[C@H](CO)NC(=O)[C@@H](NC(=O)CNC(=O)[C@H](CCCCN)NC(=O)[C@H](CO)NC(=O)[C@H](CCC(N)=O)NC(=O)[C@@H](NC(=O)[C@H](CCC(=O)O)N1CCCCC(C(=O)[C@H](CCCCN)NC(=O)[C@@H]2CCCN2C(=O)[C@H](CCCNC(=N)N)NC(=O)[C@H](CCCNC(=N)N)NC(=O)[C@H](CCCNC(=N)N)NC(=O)[C@H](CCCNC(=N)N)NC(=O)[C@H](CCCNC(=N)N)NC(=O)[C@H](CCCNC(=N)N)NC(=O)[C@H](CCCNC(=N)N)NC(=O)[C@H](CCCNC(=N)N)NC(=O)[C@@H](N)CCCNC(=N)N)CC1=O)[C@@H](C)CC)[C@@H](C)CC)C(=O)O` (stereo partly specified) (I: IQSKGIS[Nle]K[Nle]-OH / II: H-RRRRRRRRRP; linker I:N-II:C via X2), for which the LC50 with Leishmania infantum [1] is 3.5 µM; in the series with Leishmania infantum [3], 2.8 µM. Moreover, the selectivity ratio in series [2] and in series [5] was < 1 throughout. The CC50 at 24 h in series [4] was 2.5 µM.
In general, half-life refers to the time needed for the level to fall by half in the phase considered. By IC50 is commonly meant the concentration at which inhibition is half-maximal. Regarding `CCCC[C@H](NC(=O)C[C@H](CCCCN)NC(=O)[C@H](CCCC)NC(=O)C[C@H](CO)NC(=O)[C@@H](NC(=O)C[C@H](C)NC(=O)[C@@H](NC(=O)C[C@H](CO)NC(=O)C[C@H](CCC(N)=O)NC(=O)[C@@H](NC(=O)[C@@H](NC(=O)[C@H](CCCCN)NC(=O)CC[C@@H]1CCCN1C(C)=O)[C@@H](C)CC)[C@@H](C)CC)C(C)C)[C@@H](C)CC)C(N)=O` (Ac-[X1]KII[β3hQ][β3hS]V[β3hA]I[β3hS][Nle][β3hK][Nle]-NH2), the result with Leishmania infantum [6] and in the series on Leishmania infantum [9] was inactive. The half-life at 50 µM on Proteinase K is < 15 min. Further, the IC50 was found to be 12.8 µM at Trypanothione reductase [7] and 1.65 µM on Trypanothione reductase [8].
Regarding `N=C(N)NCCC[C@H](NC(=O)[C@H](CCCNC(=N)N)NC(=O)[C@H](CCCNC(=N)N)NC(=O)[C@H](CCCNC(=N)N)NC(=O)[C@H](CCCNC(=N)N)NC(=O)[C@H](CCCNC(=N)N)NC(=O)[C@H](CCCNC(=N)N)NC(=O)[C@H](CCCNC(=N)N)NC(=O)[C@@H](N)CCCNC(=N)N)C(N)=O`, the LC50 in the series with Leishmania infantum [1] and in the series on Leishmania infantum [3] was > 25 µM each time. For the same compound, the CC50 at 24 h in series [4] was > 25 µM.
On to `CCCC[C@@H](CC(=O)N[C@@H](CCCCN)C(=O)N[C@@H](CC(N)=O)C(N)=O)NC(=O)[C@H](CO)NC(=O)[C@@H](NC(=O)CNC(=O)C[C@@H](NC(=O)[C@H](CO)NC(=O)[C@H](CCC(N)=O)NC(=O)C(NC(=O)C[C@@H](NC(=O)[C@H](CCCCN)NC(=O)[C@@H]1CCCN1C(C)=O)[C@@H](C)CC)[C@@H](C)CC)C(C)C)[C@@H](C)CC` (single isomer, unassigned), for which the result with Leishmania infantum [6] and in the series with Leishmania infantum [9] was inactive. Also, at Proteinase K, the half-life at 50 µM was < 15 min. The IC50 is 9.72 µM on Trypanothione reductase [7] and 18.2 µM at Trypanothione reductase [8].
In the case of `CCCC[C@H](NC(=O)[C@H](CCCCN)NC(=O)[C@H](CC(C)C)NC(=O)C[C@H](CO)NC(=O)[C@@H](NC(=O)CNC(=O)[C@@H](NC(=O)C[C@H](CO)NC(=O)[C@H](CCC(N)=O)NC(=O)[C@@H](NC(=O)C[C@@H](NC(=O)[C@H](CCCCN)NC(=O)[C@@H]1CCCN1C(=O)[C@H](CCCNC(=N)N)NC(=O)[C@H](CCCNC(=N)N)NC(=O)[C@H](CCCNC(=N)N)NC(=O)[C@H](CCCNC(=N)N)NC(=O)[C@H](CCCNC(=N)N)NC(=O)[C@H](CCCNC(=N)N)NC(=O)[C@H](CCCNC(=N)N)NC(=O)[C@H](CCCNC(=N)N)NC(=O)[C@@H](N)CCCNC(=N)N)[C@@H](C)CC)[C@@H](C)CC)C(C)C)[C@@H](C)CC)C(N)=O` (H-RRRRRRRRRPK[β3hI]IQ[β3hS]VGI[β3hS]LK[Nle]-NH2), the results for the median lethal concentration (LC50) with Leishmania infantum [1] and in the series on Leishmania infantum [3] were 0.98 µM and 1.9 µM, respectively. The results for the selectivity ratio in [2] and in series [5] were 5.9 and 3.1, respectively. Further, the CC50 at 24 h in series [4] amounted to 5.8 µM.
